Experimental data: patent publication US8232315B2, “Methods for treating drug addiction and improving addiction-related behavior” (SK Biopharmaceuticals Co., Ltd., priority 2009, dated 2012)
“Also recorded” adds a separate entry of the source. Read-outs that look alike come from different tables or passages of the source.

Assays:
[1] = test system: monkeys trained to discriminate cocaine (0.40 mg/kg) from saline; assay: Cocaine drug discrimination (substitution protocol) in rhesus monkeys; type: in vivo, rhesus monkeys (Macaca mulatta); conditions: for ED50: Primates, in Macaca mulatta, cumulative dosing, read-out: ED50 in producing cocaine-appropriate responding; for Effect on response rates: substituting doses of test compound / training dose of cocaine, relative to saline control
Description: Subjects: The subjects were four male rhesus monkeys (Macaca mulatta) each weighing 7.0-8.0 kg. Each monkey was maintained on a diet of 7-12 monkey biscuits (Purina Monkey Chow Jumbo #5037) and one piece of fresh fruit per day. During the week, all food was delivered after the experimental session, whereas on weekends, food was delivered between 9 a.m. and noon. Water was freely available at all times. The room in which the monkeys were housed was maintained on a 12-hr light/dark cycle, with lights on from 7 a.m. to 7 p.m.
Apparatus: Each monkey was housed individually in a well-ventilated, stainless steel chamber (56×71×69 cm). The home cages of all monkeys were modified to include an operant panel (28×28 cm) mounted on the front wall. Three square translucent response keys (6.4×6.4 cm) were arranged 2.54 cm apart in a horizontal row 3.2 cm from the top of the operant panel. Each key could be transilluminated by red or green stimulus lights (Superbright LED'S). In addition, the operant panel supported an externally mounted pellet dispenser (Gerbrands, Model G53 10, Arlington, Mass.) that delivered 1 gm fruit-flavored food pellets (Precision Primate Pellets Formula L/I Banana Flavor, P. J. Noyes Co., Lancaster, N.H.) to a food receptacle mounted on the cage beneath the operant response panel. Operation of the operant panels and data collection were accomplished with IBM-compatible computers and interface systems (MedAssociates; St. Albans, Vt.) located in a separate room.
Discrimination Training: Discrimination training was conducted 5 days per week during daily sessions composed of multiple cycles. Each cycle consisted of a 15-min time-out period followed by a 5-min response period. During the time-out, all stimulus lights were off, and responding had no scheduled consequences. During the response period, the right and left response keys were transilluminated red or green, and monkeys could earn up to 10 food pellets by responding under a FR 30 schedule of food presentation. For all four monkeys in this study, the left key was illuminated green, and the right key was illuminated red. The center key was not illuminated at any time, and responding on the center key had no scheduled consequences. If all available food pellets were delivered before the end of the 5-min response period, the stimulus lights transilluminating the response keys were turned off, and responding had no scheduled consequences for the remainder of the 5-min period.
On training days, monkeys were given an i.m. injection of either saline or 0.40 mg/kg cocaine 5-min after the beginning of each time-out period (i.e., 10 min before the response period). Following the administration of saline, responding on only the green key (the saline-appropriate key) produced food, whereas following administration of 0.40 mg/kg cocaine, only responding on the red key (the drug-appropriate key) produced food. Responses on the inappropriate key reset the FR requirement on the appropriate key. Sessions consisted of 1 to 5 cycles, and if the training dose of cocaine was administered, it was administered only during the last cycle. Thus, training days consisted of 0 to 5 saline cycles followed by 0 to 1 drug cycles.
During each response period, 3 dependent variables were determined using the following equations.
1) Percent injection-appropriate responding prior to delivery of the first reinforcer.
2) Percent injection-appropriate responding for the entire response period.
Monkeys were considered to have acquired cocaine discrimination when the following three criteria were met for 7 of 8 consecutive training sessions: 1) the percent injection-appropriate responding prior to delivery of the first reinforcer was greater than or equal to 80% for all cycles; 2) the percent injection-appropriate responding for the entire cycle was greater than or equal to 90% for all cycles; 3) response rates during saline training cycles were greater than 0.5 responses per second. […]

[2] = test system: rats trained to discriminate cocaine (10 mg/kg) from saline; assay: Substitution for the discriminative stimulus effects of cocaine in rats (two-lever drug discrimination); type: in vivo, Sprague-Dawley rats; conditions: for ED50: Rattus norvegicus, linear regression against log10 doses from 10 to 100 mg/kg
Protocol: Test compound was tested for its ability to substitute for the discriminative stimulus effects of cocaine (10 mg/kg) in rats.
Six male Sprague-Dawley rats were trained to discriminate cocaine (10 mg/kg) from saline using a two-lever choice methodology. Food was available as a reinforcer under a fixed ratio 10 schedule when responding occurred on the injection appropriate lever. All tests occurred in standard, commercially available chambers (Coulbourn Instruments), using 45 mg food pellets (Bioserve) as reinforcers.
Training sessions occurred in a double alternating fashion, and tests were conducted between pairs of identical training sessions (i.e., between either two saline or two cocaine training sessions). Tests occurred only if, in the two preceding training sessions, subjects met the criteria of emitting 85% of responses on the injection correct lever for both the first reinforcer (first fixed ratio) and the total session. Test sessions lasted for twenty minutes, or until twenty reinforcers had been obtained. Doses of the test compound for which fewer, than three rats completed the first fixed ratio were not considered in the characterization of discriminative stimulus effects.
Intraperitoneal injections (1 ml/kg) of test compound, or its vehicle (0.9% saline), occurred 60 minutes prior to the start of the test session. A starting dose for test compound of 2.5 mg/kg was determined based upon data supplied by the project officer, and a dose range of 2.5 to 100 mg/kg was examined.

NC(=O)OC[C@H](N)Cc1ccccc1 [test compound, O-carbamoyl-(D)-phenylalaminol]
ED50 ([1]; monkey 92N012): 1.8 mg/kg | ED50 ([1]; monkey 153F): 5.6 mg/kg | ED50 ([1]; monkey 186F): 13.4 mg/kg | ED50 ([1]; monkey L958): 5.6 mg/kg | Overt behavioral effects ([1]; across the dose range tested (0.1-18 mg/kg)): did not produce noticeable overt behavioral effects | Substitution for the cocaine training stimulus ([1]; all four monkeys, 0.1-18 mg/kg): dose-dependent and complete substitution; also recorded: substituted completely | Effect on response rates ([1]; monkey 92N012): increased response rates | Effect on response rates ([1]; monkey 153F): decreased response rates | Effect on response rates ([1]; monkey 186F): had no effect on response rates | Potency relative to cocaine (fold less potent) ([1]; rhesus monkeys, cocaine-like behavioral effects): approximately 20 fold | ED50 ([2]; i.p. 60 min before session, read-out: ED50, substitution for the discriminative stimulus effects of 10 mg/kg cocaine, total session): 37.4 mg/kg | ED50 ([2]; ip, read-out: ED50, substitution for cocaine, first reinforcer): 37.5 mg/kg | Substitution for the discriminative stimulus effects of 10 mg/kg cocaine ([2]; dose range 2.5 to 100 mg/kg i.p.): substituted fully; also recorded: fully substituted | Response rate, % of vehicle control, first reinforcer ([2]; following 100 mg/kg i.p.): 37% | Response rate, % of vehicle control, total session ([2]; following 100 mg/kg i.p.): 41%
